Values joined by “and” are separate entries in the source; they are usually repeats but may differ in a detail not shown here. Equal entries are not always repeated. “Also recorded” adds a separate entry of the source. Where two headings read alike, the source gives them in different places.
What was measured:
M. poae [1] = assay type: cell-based, Magnaporthe poae; conditions: MEB with 1, 2, 5 and 10% (w/v) calcium propionate; five days
S. homoeocarpa [2] = test: Disrupted well-established culture transferred to amended MEB; assay type: cell-based, Scerotinia homoeocarpa; conditions: MEB with 1%, 2%, 5% or 10% (w/v) calcium propionate; five days
Excerpt: To examine the effect of calcium propionate on well-established cultures of S. homoeocarpa and M. poae, MEB was inoculated with agarose plugs as previously described. Cultures were allowed to grow for 10 days to establish a robust hyphal mat. After 10 days, hyphal mats were disrupted by pipetting to break up mycelium (disrupted culture). One milliliter of disrupted culture was transferred to MEB amended with 1%, 2%, 5%, or 10% (w/v) calcium propionate. MEB without calcium propionate was used as a control. Cultures were allowed to grow for five days following inoculation with disrupted mycelium.

M. poae [3] = assay type: cell-based, Magnaporthe poae
dollar spot = test: Golf Course 1: infected live turfgrass, visual inspection for dollar spot; assay type: in vivo, Scerotinia homoeocarpa
Experimental: Calcium propionate was dissolved in water to form a 5% (w/v) solution. […] Zone 1 was left untreated, Zone 2 was treated with 2.5 grams calcium propionate per square meter, Zone 3 was treated with 5 grams of calcium propionate per square meter, and Zone 4 was treated with 10 grams of calcium propionate per square meter. The turfgrass was comprised primarily of Festuca rubra. The calcium propionate 5% (w/v) solution was sprayed onto the turfgrass.
The four zones were visually inspected for dollar spot after 10 days. […] In contrast, dollar spot could, still be visually detected in untreated Zone 1.
Thereafter, all of the zones (1-4) were treated with 5 grams of calcium propionate per square meter. The calcium propionate 5% (w/v) solution was sprayed onto the turfgrass every 10 to 14 days.

S. homoeocarpa [4] = test: Growth on PDA with calcium propionate fully integrated into the agarose; assay type: cell-based, Scerotinia homoeocarpa; conditions: for Growth, S. homeocarpa: single plate
Experimental: (§1) In contrast to the zone of inhibition assays described in Examples 1-3, for this experiment, PDA with calcium propionate fully integrated into the agarose was prepared. Thus, inoculants were grown on plates in which calcium propionate was incorporated at a uniform concentration throughout the plate, rather than the zones of concentration established by simple diffusion in the zone of inhibition assays. The PDA plates were amended with 5, 7.5, 10, or 12% (w/v) calcium propionate. Growth diameter was recorded for 15 days post inoculation. The data shown in Table 3 represent the results of single plate tests.

R. solani = test: as above; assay type: cell-based, Rhizoctonia solani; conditions: for Growth, R. solani: single plate
Experimental: as §1

M. poae [5] = assay type: cell-based, Magnaporthe poae; remark: listed apart in the source
[6] = PDA with 5% (w/v) calcium propionate, day 4
[7] = PDA with 5% (w/v) calcium propionate, day 5
[8] = PDA with 5% (w/v) calcium propionate, day 8
[9] = PDA with 5% (w/v) calcium propionate, day 11
[10] = PDA with 5% (w/v) calcium propionate, day 15
[11] = PDA with 7.5% (w/v) calcium propionate, day 4
[12] = PDA with 7.5% (w/v) calcium propionate, day 5
[13] = PDA with 7.5% (w/v) calcium propionate, day 8
[14] = PDA with 7.5% (w/v) calcium propionate, day 11
[15] = PDA with 7.5% (w/v) calcium propionate, day 15
[16] = PDA with 10% (w/v) calcium propionate, day 4
[17] = PDA with 10% (w/v) calcium propionate, day 5
[18] = PDA with 10% (w/v) calcium propionate, day 8
[19] = PDA with 10% (w/v) calcium propionate, day 11
[20] = PDA with 10% (w/v) calcium propionate, day 15
[21] = PDA with 12% (w/v) calcium propionate, day 4
[22] = PDA with 12% (w/v) calcium propionate, day 5
[23] = PDA with 12% (w/v) calcium propionate, day 8
[24] = PDA with 12% (w/v) calcium propionate, day 11
[25] = PDA with 12% (w/v) calcium propionate, day 15
[26] = any of the concentrations tested (5, 7.5, 10, 12% w/v), 15 days

CCC(=O)[O-].CCC(=O)[O-].[Ca+2] [calcium propionate]
growth in liquid culture, M. poae (M. poae [1]): no growth was observed
growth of disrupted culture, S. homoeocarpa (S. homoeocarpa [2]): No growth was observed
growth inhibition in repeated experiments, M. poae (M. poae [3]; 2-4% (w/v) calcium propionate, repeat, data not shown): mixed
Growth, M. Poae (M. poae [3]; 5-12% (w/v) calcium propionate, day 2, average ± SD of three plates): 1.1 ± 0.1 cm
Growth, M. Poae (M. poae [3]; 5-12% (w/v) calcium propionate, day 3, average ± SD of three plates): 1.5 ± 0.2 cm
Growth, M. Poae (M. poae [3]; 5-12% (w/v) calcium propionate, day 6, average ± SD of three plates): 2.1 ± 0.4 cm
Growth, M. Poae (M. poae [3]; 5-12% (w/v) calcium propionate, day 7, average ± SD of three plates): 3.1±0.4 cm
Growth, M. Poae (M. poae [3]; 5-12% (w/v) calcium propionate, day 10, average ± SD of three plates): 5.8 ± 0.7 cm
Growth, M. Poae (M. poae [3]; 5-12% (w/v) calcium propionate, day 13, average ± SD of three plates): 8.2 ± 0.5 cm
growth inhibition, M. poae (M. poae [3]; wells 0.1-0.5% (w/v) calcium propionate, observed over seven days): no growth inhibition was observed
Growth, M. Poae (M. poae [3]; wells 0.5-4% (w/v) calcium propionate, day 2, average ± SD of two plates): 1.5 ± 0.2 cm
Growth, M. Poae (M. poae [3]; wells 0.5-4% (w/v) calcium propionate, day 5, average ± SD of two plates): 4.3 ± 0.1 cm
Growth, M. Poae (M. poae [3]; wells 0.5-4% (w/v) calcium propionate, day 7, average ± SD of two plates): 6.9 ± 0.1 cm
growth inhibition, M. poae (M. poae [3]; wells 0.5-4% (w/v) calcium propionate, seven day growth period): clear growth inhibition; also recorded: inhibited to a similar degree
visual detection of dollar spot (dollar spot; Zone 2: 2.5 grams per square meter, 5% (w/v) solution sprayed, after 10 days): could no longer be visually detected
visual detection of dollar spot (dollar spot; Zone 3: 5 grams per square meter, 5% (w/v) solution sprayed, after 10 days): could no longer be visually detected
visual detection of dollar spot (dollar spot; Zone 4: 10 grams per square meter, 5% (w/v) solution sprayed, after 10 days): could no longer be visually detected
visual detection of dollar spot (dollar spot; zones 1-4, 5 grams per square meter every 10 to 14 days, several months (late summer to early spring)): could not be visually detected
Growth, S. homeocarpa (S. homoeocarpa [4]; [6]): 0 cm
Growth, S. homeocarpa (S. homoeocarpa [4]; [7]): 0 cm
Growth, S. homeocarpa (S. homoeocarpa [4]; [8]): 0 cm
Growth, S. homeocarpa (S. homoeocarpa [4]; [9]): 0 cm
Growth, S. homeocarpa (S. homoeocarpa [4]; [10]): 0 cm
Growth, S. homeocarpa (S. homoeocarpa [4]; [11]): 0 cm
Growth, S. homeocarpa (S. homoeocarpa [4]; [12]): 0 cm
Growth, S. homeocarpa (S. homoeocarpa [4]; [13]): 0 cm
Growth, S. homeocarpa (S. homoeocarpa [4]; [14]): 0 cm
Growth, S. homeocarpa (S. homoeocarpa [4]; [15]): 0 cm
Growth, S. homeocarpa (S. homoeocarpa [4]; [16]): 0 cm
Growth, S. homeocarpa (S. homoeocarpa [4]; [17]): 0 cm
Growth, S. homeocarpa (S. homoeocarpa [4]; [18]): 0 cm
Growth, S. homeocarpa (S. homoeocarpa [4]; [19]): 0 cm
Growth, S. homeocarpa (S. homoeocarpa [4]; [20]): 0 cm
Growth, S. homeocarpa (S. homoeocarpa [4]; [21]): 0 cm
Growth, S. homeocarpa (S. homoeocarpa [4]; [22]): 0 cm
Growth, S. homeocarpa (S. homoeocarpa [4]; [23]): 0 cm
Growth, S. homeocarpa (S. homoeocarpa [4]; [24]): 0 cm
Growth, S. homeocarpa (S. homoeocarpa [4]; [25]): 0 cm
growth, S. homoeocarpa (S. homoeocarpa [4]; [26]): no growth
Growth, R. solani (R. solani; [6]): 1.3 cm
Growth, R. solani (R. solani; [7]): 1.7 cm
Growth, R. solani (R. solani; [8]): 2.5 cm
Growth, R. solani (R. solani; [9]): 3.2 cm
Growth, R. solani (R. solani; [10]): 4.6 cm
Growth, R. solani (R. solani; [11]): 0 cm
Growth, R. solani (R. solani; [12]): 1 cm
Growth, R. solani (R. solani; [13]): 1.2 cm
Growth, R. solani (R. solani; [14]): 1.2 cm
Growth, R. solani (R. solani; [15]): 2.0 cm and 2 cm
Growth, R. solani (R. solani; [16]): 0 cm
Growth, R. solani (R. solani; [17]): 0 cm
Growth, R. solani (R. solani; [18]): 0 cm
Growth, R. solani (R. solani; [19]): 0 cm
Growth, R. solani (R. solani; [20]): 0 cm
growth inhibition, R. solani (R. solani; PDA with 10% and 12% (w/v) calcium propionate, 15 days): fully inhibited growth
Growth, R. solani (R. solani; [21]): 0 cm
Growth, R. solani (R. solani; [22]): 0 cm
Growth, R. solani (R. solani; [23]): 0 cm
Growth, R. solani (R. solani; [24]): 0 cm
Growth, R. solani (R. solani; [25]): 0 cm
Growth, M. Poae (M. poae [5]; PDA with 5% (w/v) calcium propionate, day 4, single plate): 0 cm
Growth, M. Poae (M. poae [5]; PDA with 5% (w/v) calcium propionate, day 5, single plate): 0 cm
Growth, M. Poae (M. poae [5]; PDA with 5% (w/v) calcium propionate, day 8, single plate): 0 cm
Growth, M. Poae (M. poae [5]; PDA with 5% (w/v) calcium propionate, day 11, single plate): 0 cm
Growth, M. Poae (M. poae [5]; PDA with 5% (w/v) calcium propionate, day 15, single plate): 0 cm
Growth, M. Poae (M. poae [5]; PDA with 7.5% (w/v) calcium propionate, day 4, single plate): 0 cm
Growth, M. Poae (M. poae [5]; PDA with 7.5% (w/v) calcium propionate, day 5, single plate): 0 cm
Growth, M. Poae (M. poae [5]; PDA with 7.5% (w/v) calcium propionate, day 8, single plate): 0 cm
Growth, M. Poae (M. poae [5]; PDA with 7.5% (w/v) calcium propionate, day 11, single plate): 0 cm
Growth, M. Poae (M. poae [5]; PDA with 7.5% (w/v) calcium propionate, day 15, single plate): 0 cm
Growth, M. Poae (M. poae [5]; PDA with 10% (w/v) calcium propionate, day 4, single plate): 0 cm
Growth, M. Poae (M. poae [5]; PDA with 10% (w/v) calcium propionate, day 5, single plate): 0 cm
Growth, M. Poae (M. poae [5]; PDA with 10% (w/v) calcium propionate, day 8, single plate): 0 cm
Growth, M. Poae (M. poae [5]; PDA with 10% (w/v) calcium propionate, day 11, single plate): 0 cm
Growth, M. Poae (M. poae [5]; PDA with 10% (w/v) calcium propionate, day 15, single plate): 0 cm
Growth, M. Poae (M. poae [5]; PDA with 12% (w/v) calcium propionate, day 4, single plate): 0 cm
Growth, M. Poae (M. poae [5]; PDA with 12% (w/v) calcium propionate, day 5, single plate): 0 cm
Growth, M. Poae (M. poae [5]; PDA with 12% (w/v) calcium propionate, day 8, single plate): 0 cm
Growth, M. Poae (M. poae [5]; PDA with 12% (w/v) calcium propionate, day 11, single plate): 0 cm
Growth, M. Poae (M. poae [5]; PDA with 12% (w/v) calcium propionate, day 15, single plate): 0 cm
Growth, M. Poae (M. poae [5]; [26]): no growth
